Values of other authors, collected in paper PMC7347157 (Chemical communications (Cambridge, England), 2019).

Conditions: unlabeled dienophile

| log P | Molecule |
| --- | --- |
| 0.51 | trans-5-oxocene [compound 4] |
| 1.11 | OC1CC/C=C/CCC1 (stereo not drawn) [5-hydroxy-trans-cyclooctene] |
